Measured values: article PMC5773217, “Xylose donor transport is critical for fungal virulence” (PLoS Pathogens, 2018)

What was measured:
Gmt1 = biological target: T1, Gmt1 (Cryptococcus neoformans, UniProt J9VRU7); assay: uptake into reconstituted proteoliposomes, LC-MS/MS; format: biochemical; conditions: 37°C
T1 construct: gene CNAG_05817; full coding region, C-terminal His/V5 tag kept, pYES-DEST52 in S. cerevisiae INVSc1, membrane protein reconstituted into proteoliposomes

Gmt2 = biological target: T2, Gmt2 (Cryptococcus neoformans, UniProt J9VY61); assay: as above; format: biochemical; conditions: 37°C
T2 construct: gene CNAG_03426; full coding region, C-terminal His/V5 tag kept, pYES-DEST52 in S. cerevisiae INVSc1, membrane protein reconstituted into proteoliposomes

[1] = test system: O=c1ccn([C@@H]2O[C@H](COP(=O)(O)OP(=O)(O)O[C@H]3OC[C@@H](O)[C@H](O)[C@H]3O)[C@@H](O)[C@H]2O)c(=O)[nH]1; assay: cells, lysate or membranes; conditions: antiport, preloaded with 10 mM UMP; 2 min; UDP-Xyl 0-100 μM
[2] = antiport, preloaded with 30 mM GMP, 16-substrate mixture, 50 μM each, 10 min
[3] = antiport counter-substrate, 30 mM GMP preloaded, GDP-Man outside

T2 sequence (J9VY61 entry or part of it): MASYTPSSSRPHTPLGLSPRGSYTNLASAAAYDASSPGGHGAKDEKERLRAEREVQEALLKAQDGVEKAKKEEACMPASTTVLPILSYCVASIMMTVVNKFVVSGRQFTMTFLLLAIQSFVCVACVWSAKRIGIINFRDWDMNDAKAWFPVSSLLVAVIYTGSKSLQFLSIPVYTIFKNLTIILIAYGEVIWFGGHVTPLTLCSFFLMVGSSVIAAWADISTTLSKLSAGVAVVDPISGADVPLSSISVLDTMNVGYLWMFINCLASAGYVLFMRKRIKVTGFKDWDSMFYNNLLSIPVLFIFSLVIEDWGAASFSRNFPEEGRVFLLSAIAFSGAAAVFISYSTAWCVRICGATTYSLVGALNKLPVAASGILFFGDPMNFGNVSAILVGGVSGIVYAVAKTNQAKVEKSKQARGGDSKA
T1 sequence (J9VRU7 entry or part of it): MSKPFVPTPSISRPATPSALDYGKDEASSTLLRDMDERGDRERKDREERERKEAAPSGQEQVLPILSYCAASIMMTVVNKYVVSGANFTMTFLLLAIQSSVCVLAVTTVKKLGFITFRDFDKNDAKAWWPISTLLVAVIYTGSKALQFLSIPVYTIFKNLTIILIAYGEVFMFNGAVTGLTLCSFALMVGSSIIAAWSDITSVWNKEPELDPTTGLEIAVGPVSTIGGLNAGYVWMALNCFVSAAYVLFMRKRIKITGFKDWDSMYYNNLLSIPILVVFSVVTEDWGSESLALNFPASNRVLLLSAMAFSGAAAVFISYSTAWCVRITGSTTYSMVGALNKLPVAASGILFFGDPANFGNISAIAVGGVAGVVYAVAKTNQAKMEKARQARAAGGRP

Nc1nc2c(ncn2[C@@H]2O[C@H](COP(=O)(O)OP(=O)(O)O[C@H]3O[C@H](CO)[C@@H](O)[C@H](O)[C@@H]3O)[C@@H](O)[C@H]2O)c(=O)[nH]1 [GDP-Man]
uptake into reconstituted proteoliposomes, LC-MS/MS (Gmt1; [2]): Both proteins transported GDP-Man and smaller amounts of other GDP-sugars in exchange for GMP
uptake into reconstituted proteoliposomes, LC-MS/MS (Gmt2; [2]): Both proteins transported GDP-Man and smaller amounts of other GDP-sugars in exchange for GMP

Nc1nc2c(ncn2[C@@H]2O[C@H](COP(=O)(O)O)[C@@H](O)[C@H]2O)c(=O)[nH]1 [GMP]
uptake into reconstituted proteoliposomes, LC-MS/MS (Gmt1; [3]): Both proteins transported GDP-Man and smaller amounts of other GDP-sugars in exchange for GMP
uptake into reconstituted proteoliposomes, LC-MS/MS (Gmt2; [3]): Both proteins transported GDP-Man and smaller amounts of other GDP-sugars in exchange for GMP

Uxt1 (Cryptococcus neoformans H99)
Km [1]: 1.0 ± 0.2 µM
kcat [1]: 0.9 s⁻¹

Uxt2 (Cryptococcus neoformans H99)
Km [1]: 2.2 ± 0.5 µM
kcat [1]: 0.4 s⁻¹
